# In publication PMC7838189, “Natural podophyllotoxin analog 4DPG attenuates EMT and colorectal cancer progression via activation of checkpoint kinase 2” (Cell Death Discovery, 2021):
# Columns and labels:
# [1] = tested on: HCT-116, SW-620, and HT-29 cells; experiment: Western blotting of p-Vimentin/Vimentin after transient 5-FU treatment; format: cell-based; conditions: 5-FU 1 µM (sub-toxic), 24 h; range over HCT-116, SW-620, HT-29 cells; densitometry
# Description: Vimentin belongs to the family of intermediate filament proteins that are known to function in maintaining the shape as well as the integrity of the normal mesenchymal cells[33],[34]. However, it has been established to regulate the cell shape and migration capability during EMT, a phenomenon critical to metastasis of cancer cells[35],[36]. To investigate any plausible contribution of Vimentin to 5-FU resistance in CRC, we treated a panel of three epithelial colorectal carcinoma cell lines (HCT-116, SW-620, and HT-29) with increasing concentrations of the said drug, transiently (24 h). Western blots were generated for the whole-cell lysates obtained from the above set of experiments. Since the phosphorylated Vimentin is an important signal transducer during the EMT process, we analyzed p-Vimentin (ser38) as well as total Vimentin levels in these lysates.
# Fig. 1 Vimentin activation and the onset of EMT in CRC cells transiently exposed to 5-FU, as well as in 5-FU-resistant population. […] F Quantification of the number of invaded cells per field from the above invasion assay experiment. n = 3, error bars: mean ± SD; ***P < 0.001. […]
# We adhered to the previously published protocol for western blotting. […] Bradford assay was performed to quantify the protein concentration. […]
# HCT-116/5-FU-R cells [2] = experiment: Acquired 5-FU resistance (MTT cytotoxicity assay); format: cell-based; conditions: cells selected with increasing 5-FU for at least 20 weeks
# Experimental: (§1) Previously described procedure by Shukla et al. was followed with minor modifications. In brief, wild-type CRC cells (HCT-116, SW-620, and HT-29) were cultured with increasing concentrations of 5-FU for at least 20 weeks. The acquired drug resistance was tested periodically by determining the half maximal inhibitory concentration (IC50) of 5-FU through MTT cytotoxicity assays.
# (§2) The experiments were performed using the wild-type and 5-FU-RCRC cells following our standardized protocols, as described previously[56],[57].
# HT-29/5-FU-R cells = experiment: Acquired 5-FU resistance (MTT cytotoxicity assay); format: cell-based; conditions: cells selected with increasing 5-FU for at least 20 weeks
# Experimental: as §1, §2
# SW-620/5-FU-R cells [3] = experiment: Acquired 5-FU resistance (MTT cytotoxicity assay); format: cell-based; conditions: cells selected with increasing 5-FU for at least 20 weeks
# Experimental: as §1, §2
# [4] = tested on: orthotopic rat colorectal carcinoma; conditions: 25 mg/kg thrice a week for 3 weeks
# Description: To examine the antitumor and anti-metastatic efficacy of 4DPG in vivo, we employed a carcinogen-induced orthotopic rat colorectal carcinoma model. […] The schematic representation briefly describes the steps involved in the generation of orthotopic colorectal tumors along with the treatment strategy and further analysis (details in “Materials and methods”). The animals were euthanized at the end of the experiment and evaluated for tumor and metastatic burden (Fig. 4A). […] To validate whether our in vitro observations on mechanistic inhibition of EMT and invasion by 4DPG hold true in vivo, we performed immunohistochemical analysis of the tumor tissues acquired from the saline and 4DPG-treated animal groups.
# A Model depicting the procedure adopted for generating the carcinogen-induced orthotopic rat CRC model, treatment strategies of 4DPG, evaluation of tumor burden, and further biochemical analysis. B Representative images of large bowel showing the colorectal tumor growth in saline, 5-FU (25 mg/kg), and 4DPG (25 mg/kg) treated groups of animals. C, D Quantification of tumor volume and number of polyps per rat in above groups of animals. n = 6 rats per group, error bars: mean ± SD; *P < 0.05, **P < 0.01, ***P < 0.001. E Representative images of the lungs dissected from the above groups of animals showing metastatic tumor burden. Orange arrows indicating bumps of secondary tumors over each lobe of lungs. F, G Quantification of a number of macroscopic secondary tumors over the lung tissues and lung weight in the above groups of animals. n = 6 rats per group, error bars, mean ± SD; **P < 0.01, ***P < 0.001. […] Scale bar: 50 µm. I Western blots depicting expression of p-Chk2 (Thr68), Chk2, p53, p-Vimentin (Ser38), and Vimentin in tumor tissues obtained from saline- and 4DPG-treated groups of animals. β-Actin expression was taken as endogenous loading control. J Densitometry analysis of the above western blot bands portraying relative protein expression of the markers presented. n = 3, error bars: mean ± SD; **P < 0.01, ***P < 0.001.
# Animal studies were performed following the guidelines approved by Institutional Animal Ethics Committee (IAEC No. 51/02/15) of CSIR-Indian Institute of Integrative Medicine, Jammu, India. The experiment was performed according to our standardized protocol described previously with necessary modifications. Five-weeks-old healthy male Wistar rats (body weight 150–200 g) were maintained in aseptic condition with free access to food and water. Animals were randomized into three groups, with six animals per group. All the rats received intrarectal instillation of 0.5 mL of freshly prepared 0.4% aqueous solution of N-methyl-N-nitrosourea (MNU) thrice a week for 3 weeks, for the orthotopic induction of colorectal tumors. The solution was injected using sterile syringe with attached 8-cm long rubber catheter tube inserted two-thirds into the colon lumen through anal orifice, as described previously. The animals were kept under continuous monitoring, and the body weight was measured once per week. Following 22 weeks after the initiation of MNU administration, treatment regimens were started by administering 5-FU (25 mg/kg), and 4DPG (25 mg/kg) thrice a week for 3 weeks. The control and treatment groups of animals were dosed separately by three independent investigators and the outcomes were assessed by a fourth investigator blind about the dosing process and treatment regimen.
# HCT-116/5-FU-R cells [5] = experiment: Matrigel invasion assay; format: cell-based; conditions: PV1019-treated, 48 h
# Description: (§3) To examine whether 4DPG-mediated repression of Vimentin and invasiveness is a Chk2-dependent process, we performed genetic silencing of endogenous Chk2 in the 5-FU-R cells using target-specific SiRNAs.
# Fig. 3 Chk2-dependent role of 4DPG in modulating p53 and repressing Vimentin expression in 5-FU-R cells. A Immunocytochemistry results showing the Vimentin expression level in SW-620/5-FU-R cells treated/transfected with scramble, SiChk2, scramble plus 4DPG, SiChk2 plus 4DPG, vehicle, PV1019, 4DPG, and PV1019 plus 4DPG for 48 h. Scale bars: 50 µm. […] C Matrigel invasion assay results showing invaded HCT-116/5-FU-R and SW-620/5-FU-R cells following 48 h of transient transfection with GFP and GFP-Chk2 plasmid construct. Scale bars: 50 µm. D Quantification of the number of invaded cells per field from the above experimental conditions. n = 3, error bars, mean ± SD; *P < 0.05, ***P < 0.001. E Immunocytochemistry results displaying Vimentin expression levels in HCT-116/5-FU-R and SW-620/5-FU-R cells after 48 h of transient transfection with pCDNA3 and/or HA-Chk2 plasmid construct. Scale bars: 50 µm. F Immunoprecipitation with Vimentin or p53 followed by western blotting analysis of p53 in SW-620/5-FU-R cells treated with vehicle and/or 4DPG (300 nM) for 48 h. […]
# SW-620/5-FU-R cells [6] = experiment: Immunocytochemistry of Vimentin; format: cell-based; conditions: PV1019 alone, 48 h
# Description: 4DPG, a podophyllotoxin class of natural product anticancer compound (Supplementary Fig. S2A) has been recently described by our research group for its potent antitumor and anti-metastatic properties against aggressive cancers[31],[32]. Further, 4DPG augments phosphorylation and activation of Chk2 (Thr68) leading to suppression of EMT and invasiveness of p53-defective cancer cells. To investigate the effect of 4DPG on phosphorylation and expression levels of Chk2 in HCT-116/5-FU-R, SW-620/5-FU-R, and HT-29/5-FU-R cells, we treated these cells for 48 h with increasing concentrations of the compound, and whole-cell lysates were subjected to western blotting analysis. […] To determine the effect of 4DPG on the invasion abilities of these 5-FU-R cells, we performed in situ fluorescent gelatin degradation assay following our pre-standardized protocol[31],[37]. In physiological conditions, this assay mimics the extracellular matrix degradation by aggressive tumor cells undergoing invasion–metastasis process.
# as §3
# Fig. 3 Chk2-dependent role of 4DPG in modulating p53 and repressing Vimentin expression in 5-FU-R cells. A Immunocytochemistry results showing the Vimentin expression level in SW-620/5-FU-R cells treated/transfected with scramble, SiChk2, scramble plus 4DPG, SiChk2 plus 4DPG, vehicle, PV1019, 4DPG, and PV1019 plus 4DPG for 48 h. Scale bars: 50 µm. […] C Matrigel invasion assay results showing invaded HCT-116/5-FU-R and SW-620/5-FU-R cells following 48 h of transient transfection with GFP and GFP-Chk2 plasmid construct. Scale bars: 50 µm. D Quantification of the number of invaded cells per field from the above experimental conditions. n = 3, error bars, mean ± SD; *P < 0.05, ***P < 0.001. E Immunocytochemistry results displaying Vimentin expression levels in HCT-116/5-FU-R and SW-620/5-FU-R cells after 48 h of transient transfection with pCDNA3 and/or HA-Chk2 plasmid construct. Scale bars: 50 µm. F Immunoprecipitation with Vimentin or p53 followed by western blotting analysis of p53 in SW-620/5-FU-R cells treated with vehicle and/or 4DPG (300 nM) for 48 h. G Cytosolic (left panel) and nuclear (right panel) extracts of SW-620/5-FU-R cells treated with vehicle and/or 4DPG (300 nM) for 48 h showing protein expression of Vimentin and p53. Tubulin and lamin expression was considered as endogenous loading controls for cytosolic and nuclear fractions, respectively.
# We followed the standard protocol with some modifications for immunocytochemistry[56],[58]. In brief, cells, at a density of 4 × 10^5 cells/well, were seeded over the sterile coverslips placed in six-well plates. Following the respective treatment, cells were washed thrice with PBS. Next, the cells were fixed with 4% paraformaldehyde (pH = 7.4) for 15 min, permeabilized with 0.3% Triton X-100 for 10 min, and then blocked with 1% goat serum for 30 min. Consequently, the cells were incubated with anti-Vimentin antibody overnight at 4 °C, at a dilution of 1:100, followed by washing with PBST and further incubation with secondary anti-rabbit Alexa Fluor 488 (1:750 dilution). After subsequent washing and mounting, the images were captured at ×20 magnification under Floid Cell Imaging Station (Invitrogen).
SMILES,boost in p-Vimentin (ser38) [1],increase in Vimentin expression level [1],acquired resistance up to (5-FU concentration) (HCT-116/5-FU-R cells [2]),acquired resistance up to (5-FU concentration) (HT-29/5-FU-R cells) [µM],acquired resistance up to (5-FU concentration) (SW-620/5-FU-R cells [3]) [µM],lung metastases [4],average number of polyps ([4]; control group 16),mean tumor volume ([4]; saline control 820.6 mm^3) [mm^3],number of invaded cells (HCT-116/5-FU-R cells [5]),Vimentin level (immunocytochemistry) (SW-620/5-FU-R cells [6])
"O=c1[nH]cc(F)c(=O)[nH]1 [5-FU, 5-fluorouracil]",2–7.8 fold,2.1–8.5 fold,up to 50 µM,≤ 45,≤ 60,could not restrict the metastatic spread,8,231,,
"CC(=NNC(=N)N)c1ccc(NC(=O)c2cc3cccc([N+](=O)[O-])c3[nH]2)cc1 [PV1019, 7-nitro-1H-indole-2-carboxylic acid {4-[1-(guanidinohydrazone)-ethyl]-phenyl}-amide, reference compound]",,,,,,,,,remarkable increase,increased Vimentin level
